Assay results published in ChEMBL document CHEMBL1201862, “PubChem BioAssay data set” (2004).
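Compound exposure: 48 hours, 5 concentrations, 96-well plates. Abbreviation: GI50, concentration required for 50% inhibition of growth.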 Active and inactive are the calls of the source. No stated cut-off is given here; in the data, active = GI50 up to about 1.1 µM and inactive = higher. Where a SMILES comes first, the peptide text is derived from it. [ ]: non-standard residue; d: D form. Ac5c = NC1(C(=O)O)CCCC1

Experiments:
Assay in all cases: inhibition of tumour cell growth, NCI panel, 48 h
786-0 = system: 786-0
COLO 205 = system: COLO 205
HT-29 = system: HT-29
K562 = system: K562
KM12 = system: KM12
MDA-MB-231 = system: MDA-MB-231
MDA-N = system: MDA-N
NCI-H23 = system: NCI-H23
NCI-H460 = system: NCI-H460
NCI/ADR-RES = system: NCI/ADR-RES
OVCAR-5 = system: OVCAR-5
RXF 393 = system: RXF 393
SK-MEL-28 = system: SK-MEL-28
SK-MEL-2 = system: SK-MEL-2
SN12C = system: SN12C
TK-10 = system: TK-10
CCRF-CEM = system: CCRF-CEM
OVCAR-8 = system: OVCAR-8
SF-539 = system: SF-539
Hs-578T = system: Hs-578T

Measured: GI50

Nn1c(CCCCCCCCc2nnc(COc3c(O)ccc4ccccc34)n2N)nnc1COc1c(O)ccc2ccccc12
inactive: 786-0 99.3 µM | COLO 205 > 100 µM | HT-29 > 100 µM | K562 > 100 µM | KM12 > 100 µM | MDA-MB-231 > 100 µM | MDA-N > 100 µM | NCI-H23 > 100 µM | NCI-H460 57.9 µM | NCI/ADR-RES > 100 µM | OVCAR-5 > 100 µM | RXF 393 84.3 µM | SK-MEL-28 > 100 µM | SK-MEL-2 > 100 µM | SN12C > 100 µM | TK-10 > 100 µM

O=C1/C(=C/c2ccco2)N=C(c2ccccc2)N1c1ccc(S(=O)(=O)Nc2nccs2)cc1
inactive: 786-0 > 100 µM | CCRF-CEM 75.7 µM | COLO 205 > 100 µM | HT-29 > 100 µM | K562 > 100 µM | KM12 > 100 µM | MDA-MB-231 > 100 µM | MDA-N > 100 µM | NCI-H23 > 100 µM | NCI-H460 45.9 µM | NCI/ADR-RES > 100 µM | OVCAR-5 > 100 µM | OVCAR-8 65.5 µM | RXF 393 69.5 µM | SF-539 > 100 µM | SK-MEL-2 > 100 µM | SN12C > 100 µM | TK-10 > 100 µM

CC(C)(C)C1CCC2c3c([nH]c4ccccc34)C3C(=O)N(c4cccc([N+](=O)[O-])c4)C(=O)C3C2C1 (stereo not drawn)
inactive: 786-0 17.4 µM | CCRF-CEM > 100 µM | COLO 205 21.2 µM | HT-29 17.7 µM | K562 > 100 µM | KM12 5.62 µM | MDA-MB-231 30.5 µM | MDA-N 18.2 µM | NCI-H23 15.5 µM | NCI-H460 13.6 µM | NCI/ADR-RES 27.1 µM | OVCAR-5 52.2 µM | OVCAR-8 25.7 µM | RXF 393 54 µM | SF-539 49.9 µM | SK-MEL-28 21 µM | SK-MEL-2 24.5 µM | SN12C 7 µM | TK-10 38.5 µM

COC(=O)c1cc2c(cc1CC1Cc3cc4c(cc3C1=O)CCC4)CCC2 (stereo not drawn)
inactive: 786-0 83.8 µM | CCRF-CEM 21.5 µM | COLO 205 33.3 µM | HT-29 31.7 µM | Hs-578T 15 µM | K562 20.2 µM | KM12 32.4 µM | MDA-MB-231 53.8 µM | MDA-N 18.2 µM | NCI-H23 41.6 µM | NCI-H460 40 µM | NCI/ADR-RES 38.1 µM | OVCAR-5 > 100 µM | OVCAR-8 74 µM | SF-539 58.9 µM | SK-MEL-28 76 µM | SK-MEL-2 36.4 µM | SN12C 57.5 µM | TK-10 73.1 µM

CC1=CC(C)C(O)C(C)/C=C\C(O)C/C=C(/C)C(=O)CC(O)C(C)\C=C/C=C\C=C/C(=O)NC2=C(O)C(=O)c3c(cc(C)c(O)c3C1=O)C2=O (stereo not drawn)
inactive: 786-0 > 100 µM | CCRF-CEM 69.2 µM | COLO 205 > 100 µM | HT-29 56.4 µM | Hs-578T 46 µM | KM12 56.2 µM | MDA-MB-231 > 100 µM | MDA-N > 100 µM | NCI-H23 > 100 µM | NCI-H460 > 100 µM | NCI/ADR-RES > 100 µM | OVCAR-5 > 100 µM | OVCAR-8 > 100 µM | SF-539 62.1 µM | SK-MEL-28 > 100 µM | SK-MEL-2 > 100 µM | SN12C > 100 µM | TK-10 > 100 µM

COC(=O)[C@@]12CSC[C@]1(C(=O)OC)N[C@@H](c1ccccc1O)C2
inactive: 786-0 > 100 µM | CCRF-CEM > 100 µM | COLO 205 > 100 µM | HT-29 > 100 µM | Hs-578T > 100 µM | K562 > 100 µM | KM12 > 100 µM | MDA-N > 100 µM | NCI-H23 > 100 µM | NCI-H460 > 100 µM | NCI/ADR-RES > 100 µM | OVCAR-5 > 100 µM | OVCAR-8 > 100 µM | RXF 393 > 100 µM | SF-539 > 100 µM | SK-MEL-28 > 100 µM | SK-MEL-2 > 100 µM | SN12C > 100 µM | TK-10 > 100 µM

CN(CCO)CCCC1COc2ccccc2O1 (stereo not drawn)
inactive: 786-0 > 100 µM | CCRF-CEM > 100 µM | COLO 205 > 100 µM | HT-29 > 100 µM | K562 > 100 µM | MDA-N > 100 µM | NCI-H23 > 100 µM | NCI-H460 > 100 µM | NCI/ADR-RES > 100 µM | OVCAR-5 > 100 µM | OVCAR-8 > 100 µM | RXF 393 > 100 µM | SF-539 > 100 µM | SK-MEL-28 > 100 µM | SN12C > 100 µM | TK-10 > 100 µM

CC(C)Sc1nc(C#N)cc2c1CCCC2
inactive: 786-0 54 µM | CCRF-CEM 24.8 µM | COLO 205 20.1 µM | HT-29 > 100 µM | K562 48.9 µM | KM12 28.6 µM | MDA-MB-231 57.1 µM | MDA-N 37.7 µM | NCI-H23 58.9 µM | NCI-H460 48.9 µM | NCI/ADR-RES 39.2 µM | OVCAR-5 > 100 µM | OVCAR-8 63.5 µM | RXF 393 27.7 µM | SF-539 42.5 µM | SK-MEL-28 29.7 µM | SK-MEL-2 23.2 µM | SN12C 51.3 µM | TK-10 > 100 µM

COc1c(Br)cc(/C=C(\C#N)c2cccnc2)cc1Br
inactive: 786-0 > 100 µM | CCRF-CEM > 100 µM | COLO 205 34.5 µM | HT-29 26.4 µM | K562 80.9 µM | KM12 33.1 µM | MDA-N > 100 µM | NCI-H23 32.7 µM | NCI-H460 37.8 µM | NCI/ADR-RES 34.9 µM | OVCAR-5 30.3 µM | OVCAR-8 53.8 µM | RXF 393 51.5 µM | SF-539 43.7 µM | SK-MEL-28 50.5 µM | SK-MEL-2 96.6 µM | SN12C > 100 µM | TK-10 61.7 µM

COc1c(O)cc(C(=O)O[C@@H]2Cc3c(O)cc(O)cc3O[C@@H]2c2cc(O)c(O)c(O)c2)cc1O
inactive: 786-0 18.5 µM | HT-29 18.2 µM | Hs-578T > 100 µM | K562 22.8 µM | KM12 20.1 µM | MDA-N 24.4 µM | NCI-H23 31.5 µM | NCI-H460 24.5 µM | NCI/ADR-RES 32.9 µM | OVCAR-5 39.4 µM | OVCAR-8 23.3 µM | RXF 393 18.4 µM | SK-MEL-28 > 100 µM | SK-MEL-2 63.2 µM | SN12C 19.7 µM | TK-10 > 100 µM

COC(=O)C1(NC(=O)C(C)NC(=O)C(CCCCN)NC(=O)C(CC(C)C)NC(C)=O)CCCC1 (stereo not drawn) (Ac-LKA[Ac5c]-OMe; configuration not given here)
inactive: 786-0 > 100 µM | CCRF-CEM > 100 µM | COLO 205 > 100 µM | HT-29 > 100 µM | Hs-578T > 100 µM | K562 > 100 µM | KM12 > 100 µM | MDA-MB-231 > 100 µM | MDA-N > 100 µM | NCI-H460 > 100 µM | OVCAR-8 > 100 µM | SF-539 > 100 µM | SK-MEL-28 > 100 µM | SN12C > 100 µM | TK-10 > 100 µM
